Data reported in article PMC9533837 (Antiviral Research, 2003).
Converted amounts (≈) assume the structure as drawn. Read-outs that look alike come from different tables or passages of the source.

What was measured:
VAC = settings: cited from earlier work
VAR isolate Jee = assay: organism not typed; format: cell-based, variola; settings: Vero, read-out: IC50, VAR isolate Jee
VAR isolate 102 = assay: organism not typed; format: cell-based, variola; settings: Vero, read-out: IC50, VAR isolate 102
[1] = test system: VAR-YAM (1946 Japan Yamada isolate of VAR major); assay: organism not typed; format: cell-based, variola major
VAR isolate Harper = assay: organism not typed; format: cell-based, variola; settings: Vero, read-out: IC50, VAR isolate Harper
[2] = test system: MPX Zaire (V79-1-005-Scab); assay: organism not typed; format: cell-based, monkeypox; settings: for IC50: Vero
VAR isolate Iran 2602 = assay: organism not typed; format: cell-based, variola; settings: Vero, read-out: IC50, VAR isolate Iran 2602
VAR isolate Minn124 = assay: organism not typed; format: cell-based, variola minor; settings: Vero, read-out: IC50, VAR isolate Minn124
[3] = test system: VAR-YAM (1946 Japan Yamada isolate of VAR major); assay: organism not typed; format: cell-based, variola major; settings: for IC50: Vero
VAR isolate Eth17 = assay: organism not typed; format: cell-based, variola; settings: Vero, read-out: IC50, VAR isolate Eth17
VAR isolate Rafig Lahore = assay: organism not typed; format: cell-based, variola; settings: Vero, read-out: IC50, VAR isolate Rafig Lahore
[4] = test system: VAR-BSH (1975 Bangladesh isolate of VAR major); assay: organism not typed; format: cell-based, variola major; settings: for IC50: Vero
VAR isolate V70-222 = assay: organism not typed; format: cell-based, variola; settings: Vero, read-out: IC50, VAR isolate V70-222
CPX = settings: mouse, in vivo; cited from earlier work
VAR isolate 7124 = assay: organism not typed; format: cell-based, variola; settings: Vero, read-out: IC50, VAR isolate 7124
VAC Copenhagen = assay: microbe, parasite or virus in culture; format: cell-based, vaccinia virus
[5] = test system: orthopoxviruses (VAR-BSH, VAR-YAM, VAR-GAR, MPX, CPX, VAC); assay: organism not typed; format: cell-based
VAR isolate Higgins = assay: organism not typed; format: cell-based, variola; settings: Vero, read-out: IC50, VAR isolate Higgins
CPX Brighton [6] = assay: organism not typed; format: cell-based, cowpox; settings: for IC50: Vero
VAR isolate V68-59 = assay: organism not typed; format: cell-based, variola minor; settings: Vero, read-out: IC50, VAR isolate V68-59
VAR isolate Shahzaman = assay: organism not typed; format: cell-based, variola; settings: Vero, read-out: IC50, VAR isolate Shahzaman
VAR isolate Horn = assay: organism not typed; format: cell-based, variola; settings: Vero, read-out: IC50, VAR isolate Horn
VAR isolate V70-46 = assay: organism not typed; format: cell-based, variola; settings: Vero, read-out: IC50, VAR isolate V70-46
[7] = test system: VAR-GAR (1966 Brazil Garcia isolate of VAR minor); assay: organism not typed; format: cell-based, variola minor; settings: for IC50: Vero
Vero cells = settings: African green monkey
VAR isolate V77-1605 = assay: organism not typed; format: cell-based, variola; settings: Vero, read-out: IC50, VAR isolate V77-1605
VAR isolate 7125 = assay: organism not typed; format: cell-based, variola; settings: Vero, read-out: IC50, VAR isolate 7125
VAR isolate Somalia = assay: organism not typed; format: cell-based, variola; settings: Vero, read-out: IC50, VAR isolate Somalia
VAR isolate K1629 = assay: organism not typed; format: cell-based, variola; settings: Vero, read-out: IC50, VAR isolate K1629
all VAR isolates tested = assay: organism not typed; format: cell-based, variola; settings: Vero, read-out: IC50, VAR mean
VAR isolate V72-119 = assay: organism not typed; format: cell-based, variola; settings: Vero, read-out: IC50, VAR isolate V72-119
LLC-MK2 cells = settings: rhesus monkey
[8] = test system: MPX Zaire (V79-1-005-Scab); assay: organism not typed; format: cell-based, monkeypox
VAR isolate V74-227 = assay: organism not typed; format: cell-based, variola; settings: Vero, read-out: IC50, VAR isolate V74-227
[9] = test system: VAR-GAR (1966 Brazil Garcia isolate of VAR minor); assay: organism not typed; format: cell-based, variola minor
CPX Brighton [10] = assay: organism not typed; format: cell-based, cowpox
VAR isolate V73-175 = assay: organism not typed; format: cell-based, variola; settings: Vero, read-out: IC50, VAR isolate V73-175

**Q.** For NC(=O)c1ncn([C@@H]2O[C@H](CO)[C@@H](O)[C@H]2O)n1 [Ribavirin], which “inhibition of VAC replication in vitro” value (VAC) is on record?
**A.** inhibited VAC replication in vitro

**Q.** What about the IC50 (VAR isolate Jee) of the same compound?
**A.** 47 µg/mL (≈ 192 µM)

**Q.** And the IC50 (VAR isolate 102)?
**A.** 110 µg/mL (≈ 450 µM)

**Q.** What about the “Therapeutic index (TI) VAR-YAM LLC-MK2” value [1] of the same compound?
**A.** 29.4

**Q.** What about the IC50 ([1]; LLC-MK2, read-out: IC50 VAR-YAM LLC-MK2) of the same compound?
**A.** 3.4 µg/mL (≈ 13.9 µM)

**Q.** What about the IC50 (VAR isolate Harper) of the same compound?
**A.** 40 µg/mL (≈ 164 µM)

**Q.** And the “Therapeutic index (TI) MPX Vero” value [2]?
**A.** 16.9

**Q.** And the IC50 ([2]; read-out: IC50, MPX)?
**A.** 11 µg/mL (≈ 45 µM)

**Q.** And the IC50 ([2]; read-out: IC50 MPX Vero)?
**A.** 5.9 µg/mL (≈ 24.2 µM)

**Q.** And the IC50 (VAR isolate Iran 2602)?
**A.** 11 µg/mL (≈ 45 µM)

**Q.** And the IC50 (VAR isolate Minn124)?
**A.** 32 µg/mL (≈ 131 µM)

**Q.** And the “Therapeutic index (TI) VAR-YAM Vero” value [3]?
**A.** 6.3

**Q.** And the IC50 ([3]; read-out: IC50, VAR isolate Yamada)?
**A.** 40 µg/mL (≈ 164 µM)

**Q.** What about the IC50 ([3]; read-out: IC50 VAR-YAM Vero) of the same compound?
**A.** 15.8 µg/mL (≈ 64.7 µM)

**Q.** What about the IC50 (VAR isolate Eth17) of the same compound?
**A.** 61 µg/mL (≈ 250 µM)

**Q.** What about the IC50 (VAR isolate Rafig Lahore) of the same compound?
**A.** 30 µg/mL (≈ 123 µM)

**Q.** And the “Therapeutic index (TI) VAR-BSH Vero” value [4]?
**A.** 5.4

**Q.** What about the IC50 ([4]; read-out: IC50, VAR isolate Bangladesh) of the same compound?
**A.** 30 µg/mL (≈ 123 µM)

**Q.** What about the IC50 ([4]; read-out: IC50 VAR-BSH Vero) of the same compound?
**A.** 18.4 µg/mL (≈ 75.3 µM)

**Q.** What about the IC50 (VAR isolate V70-222) of the same compound?
**A.** 221 µg/mL (≈ 905 µM)

**Q.** And the “protection of CPX-infected mice” value (CPX)?
**A.** can protect CPX-infected mice

**Q.** What about the IC50 (VAR isolate 7124) of the same compound?
**A.** 36 µg/mL (≈ 147 µM)

**Q.** And the “Therapeutic index (TI) VAC LLC-MK2” value (VAC Copenhagen)?
**A.** 4.2

**Q.** And the IC50 (VAC Copenhagen; Orthopoxvirus vaccinia, LLC-MK2, read-out: IC50 VAC LLC-MK2)?
**A.** 23.9 µg/mL (≈ 97.9 µM)

**Q.** What about the IC50 ([5]; LLC-MK2, read-out: mean IC50 on LLC-MK2 cells) of the same compound?
**A.** 8 ± 3.4 µg/mL (≈ 32.8 µM)

**Q.** What about the IC50 ([5]; Vero, read-out: mean IC50 on Vero cells) of the same compound?
**A.** 31.3 ± 14.1 µg/mL (≈ 128 µM)

**Q.** And the IC50 (VAR isolate Higgins)?
**A.** 48 µg/mL (≈ 197 µM)

**Q.** What about the “Therapeutic index (TI) CPX Vero” value (CPX Brighton [6]) of the same compound?
**A.** 3.3

**Q.** And the IC50 (CPX Brighton [6]; read-out: IC50, CPX)?
**A.** > 300 µg/mL

**Q.** What about the IC50 (CPX Brighton [6]; read-out: IC50 CPX Vero) of the same compound?
**A.** 30.6 µg/mL (≈ 125 µM)

**Q.** And the IC50 (VAR isolate V68-59)?
**A.** 41 µg/mL (≈ 168 µM)

**Q.** What about the IC50 (VAR isolate Shahzaman) of the same compound?
**A.** 15 µg/mL (≈ 61.4 µM)

**Q.** And the IC50 (VAR isolate Horn)?
**A.** 28 µg/mL (≈ 115 µM)

**Q.** What about the IC50 (VAR isolate V70-46) of the same compound?
**A.** 45 µg/mL (≈ 184 µM)

**Q.** And the “Therapeutic index (TI) VAR-GAR Vero” value [7]?
**A.** 5.9

**Q.** What about the IC50 ([7]; read-out: IC50, VAR isolate Garcia) of the same compound?
**A.** 39 µg/mL (≈ 160 µM)

**Q.** What about the IC50 ([7]; read-out: IC50 VAR-GAR Vero) of the same compound?
**A.** 17 µg/mL (≈ 69.6 µM)

**Q.** What about the “Cytotoxicity TC50 Vero” value (Vero cells) of the same compound?
**A.** >100 µg/mL

**Q.** And the IC50 (VAR isolate V77-1605)?
**A.** 453 µg/mL (≈ 1850 µM)

**Q.** What about the IC50 (VAR isolate 7125) of the same compound?
**A.** 37 µg/mL (≈ 152 µM)

**Q.** And the IC50 (VAR isolate Somalia)?
**A.** 84 µg/mL (≈ 344 µM)

**Q.** And the IC50 (VAR isolate K1629)?
**A.** 24 µg/mL (≈ 98.3 µM)

**Q.** And the IC50 (all VAR isolates tested)?
**A.** 50 ± 8 µg/mL (≈ 205 µM)

**Q.** What about the IC50 (VAR isolate V72-119) of the same compound?
**A.** 35 µg/mL (≈ 143 µM)

**Q.** And the “Cytotoxicity TC50 LLC-MK2” value (LLC-MK2 cells)?
**A.** >100 µg/mL

**Q.** What about the “Therapeutic index (TI) MPX LLC-MK2” value [8] of the same compound?
**A.** 24.4

**Q.** And the IC50 ([8]; LLC-MK2, read-out: IC50 MPX LLC-MK2)?
**A.** 4.1 µg/mL (≈ 16.8 µM)

**Q.** What about the IC50 (VAR isolate V74-227) of the same compound?
**A.** 54 µg/mL (≈ 221 µM)

**Q.** And the “Therapeutic index (TI) VAR-GAR LLC-MK2” value [9]?
**A.** 27.8

**Q.** What about the IC50 ([9]; LLC-MK2, read-out: IC50 VAR-GAR LLC-MK2) of the same compound?
**A.** 3.6 µg/mL (≈ 14.7 µM)

**Q.** And the “Therapeutic index (TI) CPX LLC-MK2” value (CPX Brighton [10])?
**A.** 9.4

**Q.** And the IC50 (CPX Brighton [10]; LLC-MK2, read-out: IC50 CPX LLC-MK2)?
**A.** 10.6 µg/mL (≈ 43.4 µM)

**Q.** And the IC50 (VAR isolate V73-175)?
**A.** 17 µg/mL (≈ 69.6 µM)
